From US10577368B2 (The United States of America, as represented by the …, priority 2013, dated 2020)
Where “and” joins values, the source holds several entries; their conditions need not be identical. Identical values can stand only once. Like-named read-outs stand apart in the source and are kept apart here.

Tests used:
[1] = system: morphine-dependent rats; conditions: naloxone-precipitated withdrawal in morphine-dependent rats; cited from earlier work
[2] = molecular target: Alpha 2B adrenergic receptor (Homo sapiens (Human), UniProt P18089); assay: Off-target binding, α2B
Alpha 2B adrenergic receptor, sequence (P18089 whole entry): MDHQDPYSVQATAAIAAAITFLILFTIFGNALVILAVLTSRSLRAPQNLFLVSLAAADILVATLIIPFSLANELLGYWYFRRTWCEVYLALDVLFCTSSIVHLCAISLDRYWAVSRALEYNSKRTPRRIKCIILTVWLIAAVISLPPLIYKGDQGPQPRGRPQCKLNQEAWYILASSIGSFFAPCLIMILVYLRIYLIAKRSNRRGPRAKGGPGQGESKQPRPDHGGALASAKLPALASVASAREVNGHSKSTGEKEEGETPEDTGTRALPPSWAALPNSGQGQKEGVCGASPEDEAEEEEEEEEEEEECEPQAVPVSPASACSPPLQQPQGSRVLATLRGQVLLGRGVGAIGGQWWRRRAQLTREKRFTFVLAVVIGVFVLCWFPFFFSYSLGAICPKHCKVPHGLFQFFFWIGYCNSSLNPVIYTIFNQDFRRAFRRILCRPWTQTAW
Text: (§1) The results are set forth below.

[3] = molecular target: h5HT2B (Homo sapiens (Human), UniProt P41595); assay: Off-target binding, 5HT2B
[4] = molecular target: r Sigma 2 (Rattus norvegicus (Rat), UniProt Q5U3Y7); assay: Off-target binding, Sigma-2; conditions: for Ki: off-target binding; for Interaction at Sigma-2: 10 μM
r Sigma 2, sequence (Q5U3Y7 whole entry): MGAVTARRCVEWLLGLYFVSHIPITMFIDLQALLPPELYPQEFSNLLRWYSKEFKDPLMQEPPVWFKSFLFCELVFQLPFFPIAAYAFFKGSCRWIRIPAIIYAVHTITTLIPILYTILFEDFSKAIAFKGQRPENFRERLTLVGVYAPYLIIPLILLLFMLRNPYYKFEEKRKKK
Text: as §1

[5] = molecular target: Alpha 2C adrenergic receptor (Homo sapiens (Human), UniProt P18825); assay: Off-target binding, α2C
Text: as §1

[6] = molecular target: PBR (Homo sapiens (Human), UniProt P30536); assay: Off-target binding, PBR; conditions: for Ki: off-target binding; for Interaction at PBR: 10 μM
PBR, sequence (P30536 whole entry, species assumed): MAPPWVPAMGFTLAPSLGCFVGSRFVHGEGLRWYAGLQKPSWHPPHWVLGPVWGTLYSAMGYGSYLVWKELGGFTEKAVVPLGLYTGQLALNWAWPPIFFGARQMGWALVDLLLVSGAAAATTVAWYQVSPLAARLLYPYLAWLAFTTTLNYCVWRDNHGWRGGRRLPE
Text: as §1

[7] = molecular target: hH4 histamine receptor (Homo sapiens (Human), UniProt Q9H3N8); assay: Off-target binding, H4
hH4 histamine receptor, sequence (Q9H3N8 whole entry): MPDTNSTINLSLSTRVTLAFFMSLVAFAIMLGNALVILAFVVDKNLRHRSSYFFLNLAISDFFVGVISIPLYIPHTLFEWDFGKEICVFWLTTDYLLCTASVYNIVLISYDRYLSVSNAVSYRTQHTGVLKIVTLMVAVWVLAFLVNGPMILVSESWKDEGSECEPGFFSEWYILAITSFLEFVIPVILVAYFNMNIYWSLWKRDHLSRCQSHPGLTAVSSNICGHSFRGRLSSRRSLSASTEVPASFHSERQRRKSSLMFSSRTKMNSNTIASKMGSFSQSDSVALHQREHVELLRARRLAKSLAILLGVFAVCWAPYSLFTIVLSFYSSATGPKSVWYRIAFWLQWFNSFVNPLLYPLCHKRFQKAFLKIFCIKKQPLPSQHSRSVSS
Text: as §1

[8] = molecular target: h Beta 3 adrenergic receptor (Homo sapiens (Human), UniProt P13945); assay: Off-target binding, β3
h Beta 3 adrenergic receptor, sequence (P13945 whole entry): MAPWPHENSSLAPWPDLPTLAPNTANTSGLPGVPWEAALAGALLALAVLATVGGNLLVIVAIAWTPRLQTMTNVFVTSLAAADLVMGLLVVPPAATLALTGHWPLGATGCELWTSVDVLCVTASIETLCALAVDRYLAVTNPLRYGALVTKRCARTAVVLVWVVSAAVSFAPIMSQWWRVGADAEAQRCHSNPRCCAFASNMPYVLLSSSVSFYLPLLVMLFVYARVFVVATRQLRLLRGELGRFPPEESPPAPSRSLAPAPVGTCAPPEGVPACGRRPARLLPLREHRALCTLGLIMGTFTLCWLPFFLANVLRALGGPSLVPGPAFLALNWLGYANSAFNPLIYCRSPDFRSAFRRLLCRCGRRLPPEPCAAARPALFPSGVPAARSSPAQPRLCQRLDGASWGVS

[9] = molecular target: h5HT1A (Homo sapiens (Human), UniProt P08908); assay: Off-target binding, 5HT1A
h5HT1A, sequence (P08908 whole entry): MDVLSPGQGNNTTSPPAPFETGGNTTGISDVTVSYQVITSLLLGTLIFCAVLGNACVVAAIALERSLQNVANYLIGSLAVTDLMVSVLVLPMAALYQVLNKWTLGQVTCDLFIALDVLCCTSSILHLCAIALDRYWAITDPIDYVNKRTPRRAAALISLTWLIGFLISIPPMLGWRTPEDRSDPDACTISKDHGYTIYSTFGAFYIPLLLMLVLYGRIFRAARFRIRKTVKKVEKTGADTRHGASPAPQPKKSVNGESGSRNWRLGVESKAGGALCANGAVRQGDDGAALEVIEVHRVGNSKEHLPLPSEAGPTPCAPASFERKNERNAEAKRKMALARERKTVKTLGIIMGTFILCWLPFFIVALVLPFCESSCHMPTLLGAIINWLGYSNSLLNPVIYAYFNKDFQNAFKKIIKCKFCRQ

[10] = molecular target: DOR opiate receptor (Homo sapiens (Human), UniProt P41143); assay: Off-target binding, DOR
[11] = molecular target: hM2 muscarinic receptor (Homo sapiens (Human), UniProt P08172); assay: Off-target binding, M2
[12] = molecular target: h5HT2C (Homo sapiens, UniProt P28335); assay: Off-target binding, 5HT2C
[13] = molecular target: mA2AAR (Mus musculus (Mouse), UniProt Q60613); assay: Competition binding at mA2AAR, HEK293 cell membranes; conditions: read-out: A2AAR % inhibition, mouse data (m) (converted)
mA2AAR, sequence (Q60613 whole entry): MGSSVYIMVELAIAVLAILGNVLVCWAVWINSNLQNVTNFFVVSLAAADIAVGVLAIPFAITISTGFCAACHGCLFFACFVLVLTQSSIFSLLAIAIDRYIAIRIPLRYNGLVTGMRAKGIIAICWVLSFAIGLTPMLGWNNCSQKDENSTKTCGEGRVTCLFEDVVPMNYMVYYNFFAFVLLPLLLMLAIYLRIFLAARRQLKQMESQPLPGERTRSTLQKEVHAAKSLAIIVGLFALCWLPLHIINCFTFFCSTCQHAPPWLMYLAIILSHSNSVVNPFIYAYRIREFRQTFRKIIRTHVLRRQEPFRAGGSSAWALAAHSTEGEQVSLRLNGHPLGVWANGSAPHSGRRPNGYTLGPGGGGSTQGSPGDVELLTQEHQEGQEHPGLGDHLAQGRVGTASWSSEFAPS

[14] = molecular target: mA1AR (Mus musculus (Mouse), UniProt Q60612); assay: Competition binding at mA1AR, HEK293 cell membranes; conditions: read-out: A1AR % inhibition, mouse data (m)
mA1AR, sequence (Q60612 whole entry): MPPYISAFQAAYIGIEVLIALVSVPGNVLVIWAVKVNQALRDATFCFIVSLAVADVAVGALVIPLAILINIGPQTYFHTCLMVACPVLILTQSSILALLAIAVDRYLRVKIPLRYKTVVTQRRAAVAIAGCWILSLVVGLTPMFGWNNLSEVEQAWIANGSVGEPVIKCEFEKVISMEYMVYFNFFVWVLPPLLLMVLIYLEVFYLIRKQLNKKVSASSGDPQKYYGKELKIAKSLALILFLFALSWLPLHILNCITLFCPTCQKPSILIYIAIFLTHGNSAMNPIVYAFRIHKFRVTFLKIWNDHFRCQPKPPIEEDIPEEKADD

[15] = molecular target: hA2AAR (Homo sapiens (Human), UniProt P29274); assay: Radioligand binding at hA2AAR, HEK293 cell membranes, [3H]CGS21680; conditions: read-out: hA2AAR % inhibition
hA2AAR, sequence (P29274 whole entry): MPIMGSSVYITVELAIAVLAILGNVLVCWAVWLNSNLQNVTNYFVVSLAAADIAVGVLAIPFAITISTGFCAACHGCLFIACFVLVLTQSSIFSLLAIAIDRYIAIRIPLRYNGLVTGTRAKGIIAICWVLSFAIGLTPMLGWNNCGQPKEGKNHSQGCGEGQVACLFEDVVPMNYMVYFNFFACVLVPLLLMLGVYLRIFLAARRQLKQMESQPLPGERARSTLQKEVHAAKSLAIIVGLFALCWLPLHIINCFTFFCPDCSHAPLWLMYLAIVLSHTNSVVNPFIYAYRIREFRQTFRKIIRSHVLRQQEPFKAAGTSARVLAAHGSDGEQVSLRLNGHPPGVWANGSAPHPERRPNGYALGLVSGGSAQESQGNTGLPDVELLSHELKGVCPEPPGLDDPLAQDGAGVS

[16] = molecular target: hA1AR (Homo sapiens (Human), UniProt P30542); assay: Radioligand binding at hA1AR, CHO cell membranes, [3H]R-PIA; conditions: read-out: hA1AR % inhibition
hA1AR, sequence (P30542 whole entry): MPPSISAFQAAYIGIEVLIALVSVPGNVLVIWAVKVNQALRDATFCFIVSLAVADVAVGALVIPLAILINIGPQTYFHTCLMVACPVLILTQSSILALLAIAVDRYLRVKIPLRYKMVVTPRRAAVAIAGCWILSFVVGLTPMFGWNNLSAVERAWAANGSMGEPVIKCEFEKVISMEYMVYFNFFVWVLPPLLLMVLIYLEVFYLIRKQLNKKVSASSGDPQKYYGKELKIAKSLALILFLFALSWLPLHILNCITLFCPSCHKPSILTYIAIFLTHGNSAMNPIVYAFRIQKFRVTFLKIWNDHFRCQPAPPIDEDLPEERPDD

[17] = system: muscarinic, adrenergic, dopamine, GABA, histamine, opiate, serotonin receptors and transporters; assay: Off-target binding panel (receptors and transporters of Table 5); conditions: for Interactions at other receptors of the off-target panel: 10 μM
Text: as §1

[18] = system: chronic constriction injury model of neuropathic pain; assay: CCI model of neuropathic pain, reversal of mechano-allodynia; format: in vivo, mice; conditions: for Max. effect Emax (% ± SEM) / Time of peak protection: ipsilateral hind paw; for Efficacy in reversing NP in vivo (of full reversal at peak effect) / Duration of action: CCI model
[19] = molecular target: r Sigma 1 (Rattus norvegicus (Rat), UniProt Q9R0C9); assay: Off-target binding, Sigma-1; conditions: 10 μM
Text: as §1

[20] = system: 5 CYP isozymes (1A2, 2C9, 2C19, 2D6, 3A4); assay: Inhibition of 5 CYP isozymes; format: in vitro ADME
[21] = molecular target: mA3AR (Mus musculus (Mouse), UniProt Q61618); assay: Competition binding at mA3AR, HEK293 cell membranes
mA3AR, sequence (Q61618 whole entry): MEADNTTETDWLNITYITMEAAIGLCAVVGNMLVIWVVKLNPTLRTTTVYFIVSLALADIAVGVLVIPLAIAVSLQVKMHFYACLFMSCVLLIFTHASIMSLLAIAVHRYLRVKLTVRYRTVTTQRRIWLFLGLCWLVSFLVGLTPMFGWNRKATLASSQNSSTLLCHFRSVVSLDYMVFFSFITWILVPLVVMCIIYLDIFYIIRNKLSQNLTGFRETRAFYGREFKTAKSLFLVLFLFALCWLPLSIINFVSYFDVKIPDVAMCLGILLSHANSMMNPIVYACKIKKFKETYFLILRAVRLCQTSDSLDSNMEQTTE

[22] = molecular target: hA3AR (Homo sapiens (Human), UniProt P0DMS8); assay: Radioligand binding at hA3AR, CHO cell membranes, [125I]I-AB-MECA
hA3AR, sequence (P0DMS8 whole entry): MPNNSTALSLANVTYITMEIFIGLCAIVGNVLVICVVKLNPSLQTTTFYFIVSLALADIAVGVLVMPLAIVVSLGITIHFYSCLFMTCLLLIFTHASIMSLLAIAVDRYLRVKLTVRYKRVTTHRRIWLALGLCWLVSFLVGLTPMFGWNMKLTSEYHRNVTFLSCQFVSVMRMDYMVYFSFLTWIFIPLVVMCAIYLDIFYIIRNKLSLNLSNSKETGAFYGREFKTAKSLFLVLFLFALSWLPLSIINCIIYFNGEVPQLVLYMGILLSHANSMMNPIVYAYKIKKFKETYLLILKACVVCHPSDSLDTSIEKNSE

[23] = molecular target: human DAT (Homo sapiens (Human), UniProt Q01959); assay: Radioligand ([3H]WIN35428) binding at the dopamine transporter; conditions: for Ki: off-target binding
human DAT, sequence (Q01959 whole entry): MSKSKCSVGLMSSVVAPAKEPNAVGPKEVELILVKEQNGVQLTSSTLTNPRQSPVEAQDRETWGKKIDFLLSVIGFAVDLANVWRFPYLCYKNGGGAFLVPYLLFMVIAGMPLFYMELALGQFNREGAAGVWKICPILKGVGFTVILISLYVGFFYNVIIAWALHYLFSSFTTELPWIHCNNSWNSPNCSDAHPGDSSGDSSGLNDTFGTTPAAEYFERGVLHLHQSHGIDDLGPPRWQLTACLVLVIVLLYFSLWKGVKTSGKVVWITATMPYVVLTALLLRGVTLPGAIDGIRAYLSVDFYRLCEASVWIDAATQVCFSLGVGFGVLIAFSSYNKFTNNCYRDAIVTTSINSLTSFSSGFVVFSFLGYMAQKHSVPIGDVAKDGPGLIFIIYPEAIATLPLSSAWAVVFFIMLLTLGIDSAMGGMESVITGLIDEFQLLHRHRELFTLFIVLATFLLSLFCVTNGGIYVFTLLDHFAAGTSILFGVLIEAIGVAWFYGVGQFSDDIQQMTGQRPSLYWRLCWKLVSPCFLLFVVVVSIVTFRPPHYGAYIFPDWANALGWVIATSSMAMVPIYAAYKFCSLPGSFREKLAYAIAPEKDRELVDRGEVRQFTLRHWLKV

[24] = system: Sprague Dawley rats; assay: Toxicity of MRS5698 dosed by gavage; format: in vivo, rat; conditions: up to 150 mg/kg by gavage
Description: The formulation was dosed at up to 150 mg/kg by gavage to Sprague Dawley rats.

[25] = system: chronic constriction injury (CCI) model, mechano-allodynia; assay: Morphine analgesic tolerance in CCI model, co-administration with A3AR agonist; format: in vivo, mice
[26] = Stability in simulated fluids (gastric, intestinal); format: in vitro ADME
Text: In vitro stability parameters for selected compounds are set forth in Table 6, in accordance with an embodiment of the invention.

In the case of `CNC(=O)[C@H]1O[C@@H](n2cnc3c(NCc4cccc(I)c4)ncnc32)[C@H](O)[C@@H]1O` [IB-MECA], the “Effect on opioid dependence” value [1] is listed as “block opioid dependence”.
For `CNC(=O)C12CC1C(n1cnc3c(NCc4cccc(Cl)c4)nc(C#Cc4ccc(F)c(F)c4)nc31)C(O)C2O` (single isomer, unassigned) [MRS5698], the Ki ([2]; read-out: Ki at α2B) was 2.9 µM and 4.8 µM, the Ki ([2]; read-out: Ki class at α2B) was 1 to 10 µM and the Ki ([3]; read-out: Ki at 5HT2B) was 2.6 µM. The Ki ([3]; read-out: Ki class at 5HT2B) was 1 to 10 µM, the Ki ([4]; read-out: Ki at Sigma-2 (σ2)) was 0.91 µM and the Ki ([4]; read-out: Ki class at σ2) was < 1 µM. The Ki ([5]; read-out: Ki at α2C) was 2 µM, the Ki ([5]; read-out: Ki class at α2C) was 1 to 10 µM and the Ki ([6]; read-out: Ki at PBR) was 0.34 µM. The Ki ([6]; read-out: Ki class at PBR) was < 1 µM, the Ki ([7]; read-out: Ki at H4) was 9.4 µM and the Ki ([7]; read-out: Ki class at H4) was 1 to 10 µM. For the same compound, the Ki ([8]; read-out: Ki at β3) was 5.8 µM, the Ki ([8]; read-out: Ki class at β3) was 1 to 10 µM and the Ki ([9]; read-out: Ki at 5HT1A) was 7.6 µM. For the same compound, the Ki ([9]; read-out: Ki class at 5HT1A) was 1 to 10 µM, the Ki ([10]; read-out: Ki at DOR) was 2.5 µM and the Ki ([10]; read-out: Ki class at DOR) was 1 to 10 µM. It also gave a Ki ([11]; read-out: Ki at M2) of 5.4 µM, a Ki ([11]; read-out: Ki class at M2) of 1 to 10 µM and a Ki ([12]; Ki at 5HT2C) of 5.8 µM. For the same compound, the Ki ([12]; Ki class at 5HT2C) was 1 to 10 µM.
With `CNC(=O)[C@@]12C[C@@H]1[C@@H](n1cnc3c(NC)nc(C#Cc4cnn(C)c4)nc31)[C@H](O)[C@@H]2O` [Compound 18, (1S,2R,3S,4R,5S)-2,3-Dihydroxy-N-methyl-4-(2-((1-methyl-1H-pyrazol-4-yl)ethynyl)-6-(methylamino)-9H-purin-9-yl)bicyclo[3.1.0]hexane-1-carboxamide] the “Interaction at Sigma-2” value [4] was “weak interactions”, the “Interaction at PBR” value [6] was “weak interactions” and the inhibition at 10 µM [13] was 16%. For the same compound, the inhibition at 10 µM [14] was 72%, the inhibition at 10 µM [15] was 12 ± 6% and the inhibition at 10 µM [16] was 35%. The “Off-target effects compared with MRS5698 and MRS5676” value [17] was “significantly fewer off-target effects”, the “Interactions at other receptors of the off-target panel” value (“Interactions at other receptors” for short) [17] was “No interactions” and the “Max. effect Emax (% ± SEM)” value ([18]; 3 μmol/kg p.o., mice) was 87.3 ± 12.7%. For the same compound, the “Time of peak protection” value ([18]; 3 μmol/kg p.o., mice) was 1 h, the “Efficacy in reversing NP in vivo (of full reversal at peak effect)” value (shortened to “Efficacy in reversing NP in vivo”) [18] was ~100% and the “Interaction at Sigma-1” value [19] was “weak interactions”.
For `CNC(=O)[C@]12CC1[C@@H](n1cnc3c(NC)nc(C#Cc4ccc(Br)s4)nc31)[C@H](O)C2O` (stereo partly drawn) [compound 100], the IC50 [20] was > 7 µM.
`CNC(=O)[C@@]12C[C@@H]1[C@@H](n1cnc3c(/C=C(\O)c4ccc(C(C)(C)C)cc4)nc(C#Cc4ccc(C(C)(C)C)cc4)nc31)C(O)C2O` (stereo in doubt) [Compound 40, (1S,2S,3R,4R,5S)-4-(6-((Z)-2-(4-(tert-Butyl)phenyl)-2-hydroxyvinyl)-2-((4-(tert-butyl)phenyl)ethynyl)-9H-purin-9-yl)-2,3-dihydroxy-N-methylbicyclo[3.1.0]hexane-1-carboxamide] showed a Ki [21] of 0.136 ± 0.009 µM, a Ki [22] of 0.0785 ± 0.0198 µM and an inhibition at 10 µM [15] of 16 ± 7%. The inhibition at 10 µM [16] was 16 ± 5%.
For `CNC(=O)[C@@]12C[C@@H]1[C@@H](n1cnc3c(NCc4cccc(Cl)c4)nc(C#Cc4ccc(F)c(F)c4)nc31)C(O)[C@H]2O` (stereo partly drawn) [MRS5698, reference compound], the “Interaction with DAT” value [23] was “does not interact with DAT”, the “Interactions at other receptors” value [17] was “No interactions at other receptors” and the “Findings after oral dosing” value [24] was “No abnormal findings”. For the same compound, the “Analgesic effect of the A3AR agonist dose per se” value ([25]; […]) was “no analgesic effects per se”.
In the case of `CNC(=O)[C@@]12C[C@@H]1[C@@H](n1cnc3c(NC)nc(C#Cc4ccco4)nc31)[C@H](O)[C@@H]2O` [Compound 17, (1S,2R,3S,4R,5S)-4-(2-(Furan-2-ylethynyl)-6-(methylamino)-9H-purin-9-yl)-2,3-dihydroxy-N-methylbicyclo[3.1.0]hexane-1-carboxamide], the half-life ([26]; simulated gastric fluid, read-out: Stability in simulated fluids (t1/2, min): Gastric) is reported as > 480 min, the half-life ([26]; simulated intestinal fluid, read-out: Stability in simulated fluids (t1/2, min): Intestinal) is reported as > 480 min and the “Interaction at Sigma-2” value [4] is reported as “weak interactions”. For the same compound, the “Interaction at PBR” value [6] was “weak interactions”, the inhibition at 10 µM [13] was 17% and the Ki [21] was 0.054 ± 0.011 µM. For the same compound, the Ki [22] was 0.00062 ± 6e-05 µM, the inhibition at 10 µM [14] was 59% and the inhibition at 10 µM [15] was 18 ± 9%. For the same compound, the inhibition at 10 µM [16] was 30%, the “Off-target effects compared with MRS5698 and MRS5676” value [17] was “significantly fewer off-target effects” and the “Interactions at other receptors” value [17] was “No interactions”. The “Effect at 3 h (% ± SEM)” value ([18]; 3 μmol/kg p.o., mice, 3 h) was 27.6 ± 1.3%, the “Max. effect Emax (% ± SEM)” value ([18]; 3 μmol/kg p.o., mice) was 100 ± 0.0% and the “Time of peak protection” value ([18]; 3 μmol/kg p.o., mice) was 1 h. For the same compound, the Duration of action [18] was ~3 h, the “Efficacy in reversing NP in vivo” value [18] was ~100% and the “Interaction at Sigma-1” value [19] was “weak interactions”.
For `CN1CC[C@]23c4c5ccc(O)c4O[C@H]2[C@@H](O)C=C[C@H]3[C@H]1C5` [morphine], the “Reversal of mechano-allodynia by morphine alone on daily dosing” value ([25]; given daily over 25 days) was “loses its ability to reverse mechano-allodynia” and the “Reversal of mechano-allodynia by morphine alone” value ([25]; s.c. injection at day 7) was “near-to-maximal reversal of mechano-allodynia”.
For `CNC(=O)[C@@]12C[C@@H]1[C@@H](n1cnc3c(NC)nc(C#Cc4cccs4)nc31)[C@H](O)[C@@H]2O` [Compound 8, (1S,2R,3S,4R,5S)-2,3-Dihydroxy-N-methyl-4-(6-(methylamino)-2-(thiophen-2-ylethynyl)-9H-purin-9-yl)bicyclo[3.1.0]hexane-1-carboxamide], the Ki ([2]; read-out: Ki at α2B) was 5.5 µM, the Ki ([23]; read-out: Ki at DAT) was 0.76 µM and the Ki ([23]; read-out: Ki class at DAT) was < 1 µM. It also gave an inhibition at 10 µM [13] of 3%, a Ki [21] of 0.043 ± 0.002 µM and an inhibition at 10 µM [14] of 47%. For the same compound, the inhibition at 10 µM [15] was 20 ± 6%, the inhibition at 10 µM [16] was 25% and the “Off-target effects compared with MRS5698 and MRS5676” value [17] was “significantly fewer off-target effects”. The “Interactions at other receptors” value [17] was “No interactions at other receptors”, the “Max. effect Emax (% ± SEM)” value ([18]; 3 μmol/kg p.o., mice) was 100 ± 0.0% and the “Time of peak protection” value ([18]; 3 μmol/kg p.o., mice) was 1 h. The Duration of action [18] was ~3 h and the “Efficacy in reversing NP in vivo” value [18] was ~100%.
